In brackets after ≈: the same amount, converted by molar mass.
Tests used:
Assay type in all cases: cell-based
Details in all cases: EL-4, TPA 10 ng/ml, 24 hours, ELISA; for IC50: Mus musculus, T-cell
[1] = system: IL-2 production of mouse T cell strain EL-4 (TPA); assay: Suppressive effect on the cytokine production of mouse T cell strain EL-4: IL-2
Protocol: (§1) Experiment 8 Suppressive Effect on the Cytokine Production of a Mouse T Cell Strain EL-4 In 48-well plate were added 2×10^5 mouse T cell strain EL-4 which were suspended in 0.2 ml of 1% fetal bovine serum-added RPMI 1640 medium (2 mM of sodium bicarbonate, 50 units/ml of penicillin, 50 μg/ml of streptomycin and 5×10^−5 M of 2-mercaptoethanol were added) and the compound of the present invention of a predetermined concentration. TPA was added as a cell stimulater at a final concentration of 10 ng/ml to adjust a final volume of each well to 0.4 ml. Each compound of the present invention was dissolved in DMSO and diluted with the above RPMI 1640 medium, and then for added at a final concentration of 100 ng/ml or less. The cells in the 48-well plate were cultivated in an incubator keeping the humidity 100%, carbon dioxide 5% and air 95% at 37° C. for 24 hours to collect a supernatant of each well. The amount of IL-2, IL-4 and IL-5 released in the medium of each well were measured with the ELISA kit (Amersham K. K.) to be taken as an index of the cytokine production of the cells. TPA free group (-TPA) was used as a control.

[2] = system: IL-4 production of mouse T cell strain EL-4 (TPA); assay: Suppressive effect on the cytokine production of mouse T cell strain EL-4: IL-4
Protocol: as §1

[3] = system: IL-5 production of mouse T cell strain EL-4 (TPA); assay: Suppressive effect on the cytokine production of mouse T cell strain EL-4: IL-5
Protocol: as §1

COc1cc(-c2ccc(F)cc2)c(OC)c(O)c1-c1ccc(OCc2ccccc2)c(O)c1 [Compound I-4]
IC50 IL-2 [1]: >0.5 µg/mL
IC50 IL-4 [2]: 0.014 µg/mL (≈ 0.0314 µM)
IC50 IL-5 [3]: 0.12 µg/mL (≈ 0.269 µM)

COc1cc(-c2ccc(O)cc2)c(OC)c(O)c1-c1ccc(OC/C=C(\C)CCC=C(C)C)c(O)c1 [Compound I-37]
IC50 IL-2 [1]: >0.5 µg/mL
IC50 IL-4 [2]: 0.007 µg/mL (≈ 0.0143 µM)
IC50 IL-5 [3]: 0.11 µg/mL (≈ 0.224 µM)

COc1cc(-c2ccc(OCC=C(C)C)c(OS(C)(=O)=O)c2)c(OC)cc1-c1ccc(OS(C)(=O)=O)cc1 [Compound I-70]
IC50 IL-2 [1]: >2 µg/mL
IC50 IL-4 [2]: 0.0002 µg/mL (≈ 0.000355 µM)
IC50 IL-5 [3]: 1 µg/mL (≈ 1.78 µM)

COc1cc(-c2ccc(OS(C)(=O)=O)cc2)c(OC)c(OS(C)(=O)=O)c1-c1ccc(OCc2ccccc2)c(C=O)c1 [Compound I-83]
IC50 IL-2 [1]: >10 µg/mL
IC50 IL-4 [2]: 0.14 µg/mL (≈ 0.229 µM)
IC50 IL-5 [3]: 1 µg/mL (≈ 1.63 µM)

COc1cc(-c2ccc(OS(C)(=O)=O)cc2)c(OC)c(OS(C)(=O)=O)c1-c1cc(C=O)c(OCC=C(C)C)c(OS(C)(=O)=O)c1 [Compound I-128]
IC50 IL-2 [1]: >10 µg/mL
IC50 IL-4 [2]: 0.14 µg/mL (≈ 0.204 µM)
IC50 IL-5 [3]: 0.45 µg/mL (≈ 0.657 µM)

COc1cc(-c2ccc(OS(C)(=O)=O)cc2)c(OC)c(OS(C)(=O)=O)c1-c1ccc(OCc2ccccc2)c(C(N)=O)c1 [Compound I-148]
IC50 IL-2 [1]: >10 µg/mL
IC50 IL-4 [2]: 0.1 µg/mL (≈ 0.159 µM)
IC50 IL-5 [3]: 11 µg/mL (≈ 17.5 µM)

COc1cc(-c2ccc(C(F)(F)F)cc2)c(OC)c(OS(C)(=O)=O)c1-c1ccc(OCC=C(C)C)c(OS(C)(=O)=O)c1 [Compound I-189]
IC50 IL-2 [1]: >10 µg/mL
IC50 IL-4 [2]: 0.1 µg/mL (≈ 0.159 µM)
IC50 IL-5 [3]: 10 µg/mL (≈ 15.9 µM)

COc1cc(-c2ccc(C(F)(F)F)cc2)c(OC)c(O)c1-c1ccc(OCC=C(C)C)c(O)c1 [Compound I-190]
IC50 IL-2 [1]: >0.1 µg/mL
IC50 IL-4 [2]: 0.007 µg/mL (≈ 0.0148 µM)
IC50 IL-5 [3]: 0.01 µg/mL (≈ 0.0211 µM)

COc1cc(-c2ccc(OS(C)(=O)=O)cc2)c(OC)c(OS(C)(=O)=O)c1-c1ccc(OCc2c(C)cc(C)cc2C)c(OS(C)(=O)=O)c1 [Compound I-202]
IC50 IL-2 [1]: >2 µg/mL
IC50 IL-4 [2]: <0.02 µg/mL
IC50 IL-5 [3]: <0.02 µg/mL

COc1cc(-c2ccc(O)cc2)c(OC)c(O)c1-c1ccc(OCc2cc(C)cc(C)c2)c(O)c1 [Compound I-209]
IC50 IL-2 [1]: >0.2 µg/mL
IC50 IL-4 [2]: 0.014 µg/mL (≈ 0.0296 µM)
IC50 IL-5 [3]: 0.012 µg/mL (≈ 0.0254 µM)

COc1cc(-c2ccc(O)cc2)c(OC)c(O)c1-c1ccc(OCC(C)=C(C)C)c(O)c1 [Compound I-213]
IC50 IL-2 [1]: >1 µg/mL
IC50 IL-4 [2]: 0.025 µg/mL (≈ 0.0573 µM)
IC50 IL-5 [3]: 0.023 µg/mL (≈ 0.0527 µM)

COc1cc(-c2cccc(C(F)(F)F)c2)c(OC)c(O)c1-c1ccc(OCCC=C(C)C)c(O)c1 [Compound I-220]
IC50 IL-2 [1]: >1 µg/mL
IC50 IL-4 [2]: 0.15 µg/mL (≈ 0.307 µM)
IC50 IL-5 [3]: 0.72 µg/mL (≈ 1.47 µM)

COc1cc(-c2ccc(O)cc2)c(OC)c(O)c1-c1ccc(SCc2ccccn2)c(O)c1 [Compound I-223]
IC50 IL-2 [1]: 1 µg/mL (≈ 2.17 µM)
IC50 IL-4 [2]: 0.016 µg/mL (≈ 0.0347 µM)
IC50 IL-5 [3]: 0.045 µg/mL (≈ 0.0975 µM)

COc1cc(-c2ccc(O)cc2)c(OC)c(O)c1-c1ccc(S(=O)(=O)CC=C(C)C)c(O)c1 [Compound I-226]
IC50 IL-2 [1]: 0.88 µg/mL (≈ 1.87 µM)
IC50 IL-4 [2]: 0.017 µg/mL (≈ 0.0361 µM)
IC50 IL-5 [3]: 0.3 µg/mL (≈ 0.638 µM)

COc1cc(-c2ccc(OS(C)(=O)=O)cc2)c(OC)c(C)c1-c1ccc(OCCC=C(C)C)c(OS(C)(=O)=O)c1 [Compound I-228]
IC50 IL-2 [1]: >1 µg/mL
IC50 IL-4 [2]: 0.021 µg/mL (≈ 0.0356 µM)
IC50 IL-5 [3]: 0.03 µg/mL (≈ 0.0508 µM)

COc1cc(-c2ccc(O)cc2)c(OC)c(C)c1-c1ccc(OCCC=C(C)C)c(O)c1 [Compound I-229]
IC50 IL-2 [1]: >1 µg/mL
IC50 IL-4 [2]: 0.042 µg/mL (≈ 0.0967 µM)
IC50 IL-5 [3]: 0.08 µg/mL (≈ 0.184 µM)

COc1cc(-c2ccc(OS(C)(=O)=O)cc2)c(OC)c(C)c1-c1ccc(OCc2ccc(C)cc2)c(OS(C)(=O)=O)c1 [Compound I-230]
IC50 IL-2 [1]: >1 µg/mL
IC50 IL-4 [2]: 0.013 µg/mL (≈ 0.0212 µM)
IC50 IL-5 [3]: 0.02 µg/mL (≈ 0.0326 µM)

COc1cc(-c2ccc(SC)cc2)c(OC)c(O)c1-c1ccc(OCc2ccccc2)c(O)c1 [Compound I-233]
IC50 IL-2 [1]: >1 µg/mL
IC50 IL-4 [2]: 0.012 µg/mL (≈ 0.0253 µM)
IC50 IL-5 [3]: 0.0038 µg/mL (≈ 0.00801 µM)

COC(=O)c1ccc(-c2cc(OC)c(-c3ccc(OCc4ccccc4)c(O)c3)c(O)c2OC)cc1 [Compound I-237]
IC50 IL-2 [1]: >0.1 µg/mL
IC50 IL-4 [2]: 0.017 µg/mL (≈ 0.0349 µM)
IC50 IL-5 [3]: 0.1 µg/mL (≈ 0.206 µM)

COC(=O)c1ccc(-c2cc(OC)c(-c3ccc(OCc4ccccc4)c(OS(C)(=O)=O)c3)c(OS(C)(=O)=O)c2OC)cc1 [Compound I-238]
IC50 IL-2 [1]: >1 µg/mL
IC50 IL-4 [2]: 0.035 µg/mL (≈ 0.0545 µM)
IC50 IL-5 [3]: >1 µg/mL

COC(=O)c1ccc(-c2cc(OC)c(-c3ccc(OCc4ccc(C)cc4)c(OS(C)(=O)=O)c3)c(OS(C)(=O)=O)c2OC)cc1 [Compound I-239]
IC50 [1]: > 1 µg/mL
IC50 [2]: 0.054 µg/mL (≈ 0.0822 µM)
IC50 [3]: 0.9 µg/mL (≈ 1.37 µM)

COc1cc(-c2ccc(N(C)C)cc2)c(OC)c(OS(C)(=O)=O)c1-c1ccc(OCC=C(C)C)c(OS(C)(=O)=O)c1 [Compound I-242]
IC50 IL-2 [1]: >1 µg/mL
IC50 IL-4 [2]: 0.1 µg/mL (≈ 0.165 µM)
IC50 IL-5 [3]: 0.88 µg/mL (≈ 1.45 µM)

COc1cc(-c2ccc(OS(C)(=O)=O)cc2)c(OC)c(CO)c1-c1ccc(OCc2ccccc2)c(CO)c1 [Compound I-243]
IC50 [1]: > 0.5 µg/mL
IC50 [2]: 0.063 µg/mL (≈ 0.114 µM)
IC50 [3]: > 0.55 µg/mL

COc1cc(-c2ccc(C)cc2)c(OC)c(O)c1-c1ccc(OCCC=C(C)C)c(O)c1 [Compound I-279]
IC50 IL-2 [1]: >1 µg/mL
IC50 IL-4 [2]: 0.038 µg/mL (≈ 0.0875 µM)
IC50 IL-5 [3]: 0.09 µg/mL (≈ 0.207 µM)

COc1ccccc1-c1cc(OC)c(-c2ccc(OCc3ccc(C)cc3)c(O)c2)c(O)c1OC [Compound I-282]
IC50 IL-2 [1]: >0.5 µg/mL
IC50 IL-4 [2]: <0.005 µg/mL
IC50 IL-5 [3]: 0.13 µg/mL (≈ 0.275 µM)

COc1cc(-c2ccc(O)cc2)c(OC)c(O)c1-c1ccc(OC/C=C/CO)c(O)c1 [Compound I-296]
IC50 IL-2 [1]: >1 µg/mL
IC50 IL-4 [2]: 0.07 µg/mL (≈ 0.165 µM)
IC50 IL-5 [3]: 0.047 µg/mL (≈ 0.111 µM)

COc1cc(-c2ccc(O)cc2)c(OC)c(O)c1-c1ccc(OCC=NNC(N)=O)c(O)c1 [Compound I-302]
IC50 IL-2 [1]: >1 µg/mL
IC50 IL-4 [2]: 0.025 µg/mL (≈ 0.0551 µM)
IC50 IL-5 [3]: 0.28 µg/mL (≈ 0.617 µM)

From US7101915B1, “P-terphenyl compounds” (Shionogi & Co., Ltd., priority 1996, dated 2006)
